For 28 compounds, IC50 results are on record in patent publication US8481732B2 (Incyte Corporation, priority 2009, dated 2013).

The structures appear in SMILES notation.

The target in this experiment is T1, histamine H4 receptor (Homo sapiens, UniProt Q9H3N8).
T1 construct: expressed in transfected cells; host or cells: HEK293SFM cells (membrane preparation)
T1 sequence (Q9H3N8 whole entry): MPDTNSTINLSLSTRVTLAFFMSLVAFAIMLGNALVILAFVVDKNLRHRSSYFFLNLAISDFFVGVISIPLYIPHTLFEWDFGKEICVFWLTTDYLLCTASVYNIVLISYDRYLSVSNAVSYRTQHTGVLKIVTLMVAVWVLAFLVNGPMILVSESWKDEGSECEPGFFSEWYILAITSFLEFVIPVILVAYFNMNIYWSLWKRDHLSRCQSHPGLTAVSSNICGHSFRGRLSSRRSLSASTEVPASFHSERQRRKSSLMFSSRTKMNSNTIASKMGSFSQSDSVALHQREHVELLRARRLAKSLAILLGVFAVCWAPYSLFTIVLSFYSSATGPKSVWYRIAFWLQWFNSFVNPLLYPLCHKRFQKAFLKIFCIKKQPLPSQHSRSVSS
Put plainly: H4 Membrane Binding Assay (3H-Histamine displacement). The settings on record: membranes of recombinant HEK293SFM cells, 10 nM 3H-Histamine, 1.5 hr at room temperature. The procedure:
Recombinant HEK293SFM cells expressing human H1, H2, H3, H4 or mouse H4 were harvested (Packard Filtermate Harvester) in ice-cold Tris-HCl, (50 mM, pH 7.5, Sigma) with protease inhibitors (Roche) and homogenized with a Polytron homogenizer. The homogenate was centrifuged for 5 minutes at 1000 g to remove nuclei and unbroken cells. The supernatant was centrifuged at 50000 g for 30 minutes, and the resulting pellet was re-suspended in ice-cold Tris-HCl (50 mM, pH 7.5). […] Nonspecific binding was determined by inclusion of 1000× unlabeled ligands. The bound radioactivity was separated by filtration through polyethyleneimine-treated GF/B filters (Perkin Elmer). The filters were washed eight times with ice-cold Tris-HCl (50 mM, pH 7.5), and radioactivity retained on the filters was measured by liquid scintillation counting. The binding data were evaluated with Prism.
Usually IC50 stands for the concentration that gives 50% inhibition. On to `CO[C@H]1Cc2ccccc2[C@H]1NC(=O)N1CCc2ccc(-c3cc(N4CCN(C)CC4)nc(N)n3)cc2C1` [Example 58, 7-[2-Amino-6-(4-methylpiperazin-1-yl)pyrimidin-4-yl]-N-[(1R,2S)-2-methoxy-2,3-dihydro-1H-inden-1-yl]-3,4-dihydroisoquinoline-2(1H)-carboxamide], for which the IC50 amounted to 165 nM.
For the compound `CN1CCN(c2cc(-c3ccc4c(c3)CN(C(=O)NC35CC6CC(CC(C6)C3)C5)CC4)nc(N)n2)CC1` [Example 59, N-1-Adamantyl-7-[2-amino-6-(4-methylpiperazin-1-yl)pyrimidin-4-yl]-3,4-dihydroisoquinoline-2(1H)-carboxamide], the IC50 came to 19 nM.
Under `CN1CCN(c2cc(-c3ccc4c(c3)CN(C(=O)C(F)(F)c3ccccc3)CC4)nc(N)n2)CC1` [Example 61, 4-{2-[Difluoro(phenyl)acetyl]-1,2,3,4-tetrahydroisoquinolin-7-yl}-6-(4-methylpiperazin-1-yl)pyrimidin-2-amine] stands 70 nM; under `CC(CC(=O)N1CCc2ccc(-c3cc(N4CCN(C)CC4)nc(N)n3)cc2C1)C(F)(F)F` (stereo not shown) [Example 62, 4-(4-Methylpiperazin-1-yl)-6-[2-(4,4,4-trifluoro-3-methylbutanoyl)-1,2,3,4-tetrahydroisoquinolin-7-yl]pyrimidin-2-amine], 24 nM; under `CN1CCN(c2cc(-c3ccc4c(c3)CN(C(=O)NC3CCC(F)(F)CC3)CC4)nc(N)n2)CC1` [Example 63, 7-[2-Amino-6-(4-methylpiperazin-1-yl)pyrimidin-4-yl]-N-(4,4-difluorocyclohexyl)-3,4-dihydroisoquinoline-2(1H)-carboxamide], 37 nM.
As for `CN1CCN(c2cc(-c3ccc4c(c3)CN(C(=O)NC3CCC(C(F)(F)F)CC3)CC4)nc(N)n2)CC1` (stereo not shown) [Example 64, 7-[2-Amino-6-(4-methylpiperazin-1-yl)pyrimidin-4-yl]-N-[4-(trifluoromethyl)cyclohexyl]-3,4-dihydroisoquinoline-2(1H)-carboxamide], the IC50 came out at 43 nM.
Under `CN1CCN(c2cc(-c3ccc4c(c3)CN(C(=O)Cc3ccc(F)cc3)CC4)nc(N)n2)CC1` [Example 65, 4-{2-[(4-Fluorophenyl)acetyl]-1,2,3,4-tetrahydroisoquinolin-7-yl}-6-(4-methylpiperazin-1-yl)pyrimidin-2-amine] stands 25 nM; under `CN1CCN(c2cc(-c3ccc4c(c3)CN(C(=O)COc3cccc(Cl)c3)CC4)nc(N)n2)CC1` [Example 66, 4-{2-[(3-Chlorophenoxy)acetyl]-1,2,3,4-tetrahydroisoquinolin-7-yl}-6-(4-methylpiperazin-1-yl)pyrimidin-2-amine], 44 nM; under `CN1CCN(c2cc(-c3ccc4c(c3)CN(C(=O)OC3CCN(C(=O)C5CCCC5)CC3)CC4)nc(N)n2)CC1` [Example 67, 1-(Cyclopentylcarbonyl)piperidin-4-yl 7-[2-amino-6-(4-methylpiperazin-1-yl)pyrimidin-4-yl]-3,4-dihydroisoquinoline-2(1H)-carboxylate], 110 nM.
For the compound `CC(C)OC(=O)N1CCC(OC(=O)N2CCc3ccc(-c4cc(N5CCN(C)CC5)nc(N)n4)cc3C2)CC1` [Example 68, 1-(Isopropoxycarbonyl)piperidin-4-yl 7-[2-amino-6-(4-methylpiperazin-1-yl)pyrimidin-4-yl]-3,4-dihydroisoquinoline-2(1H)-carboxylate], the IC50 turned out to be 38 nM.
The figure for `CN1CCN(c2cc(-c3ccc4c(c3)CN(C(=O)OC3CCN(C(=O)OC5CCCC5)CC3)CC4)nc(N)n2)CC1` [Example 69, 1-[(Cyclopentyloxy)carbonyl]piperidin-4-yl 7-[2-amino-6-(4-methylpiperazin-1-yl)pyrimidin-4-yl]-3,4-dihydroisoquinoline-2(1H)-carboxylate] is 33 nM; for `CN1CCN(c2cc(-c3ccc4c(c3)CN(C(=O)OC3CCN(C(=O)NC5CCCC5)CC3)CC4)nc(N)n2)CC1` [Example 70, 1-[(Cyclopentylamino)carbonyl]piperidin-4-yl 7-[2-amino-6-(4-methylpiperazin-1-yl)pyrimidin-4-yl]-3,4-dihydroisoquinoline-2(1H)-carboxylate] it is 361 nM; for `CC(C)OC(=O)N1CCC(CC(=O)N2CCc3ccc(-c4cc(N5CCN(C)CC5)nc(N)n4)cc3C2)CC1` [Example 71, Isopropyl 4-{2-[7-[2-amino-6-(4-methylpiperazin-1-yl)pyrimidin-4-yl]-3,4-dihydroisoquinolin-2(1H)-yl]-2-oxoethyl}piperidine-1-carboxylate] it is 66 nM.
Take `CN1CCN(c2cc(-c3ccc4c(c3)CN(C(=O)CC3CCN(C(=O)C5CC5)CC3)CC4)nc(N)n2)CC1` [Example 72, 4-(2-{[1-(Cyclopropylcarbonyl)piperidin-4-yl]acetyl}-1,2,3,4-tetrahydroisoquinolin-7-yl)-6-(4-methylpiperazin-1-yl)pyrimidin-2-amine]: the IC50 was 419 nM.
The figure for `CN1CCN(c2cc(-c3ccc4c(c3)CN(C(=O)CC3CCN(C(=O)c5ccccc5)CC3)CC4)nc(N)n2)CC1` [Example 73, 4-{2-[(1-Benzoylpiperidin-4-yl)acetyl]-1,2,3,4-tetrahydroisoquinolin-7-yl}-6-(4-methylpiperazin-1-yl)pyrimidin-2-amine] is 357 nM; for `CCS(=O)(=O)N1CCC(CC(=O)N2CCc3ccc(-c4cc(N5CCN(C)CC5)nc(N)n4)cc3C2)CC1` [Example 74, 4-(2-{[1-(Ethylsulfonyl)piperidin-4-yl]acetyl}-1,2,3,4-tetrahydroisoquinolin-7-yl)-6-(4-methylpiperazin-1-yl)pyrimidin-2-amine] it is 123 nM; for `CN1CCN(c2cc(-c3cc4c(cc3F)CCN(C(=O)Nc3ccc(Cl)cc3)C4)nc(N)n2)CC1` [Example 75, 7-[2-Amino-6-(4-methylpiperazin-1-yl)pyrimidin-4-yl]-N-(4-chlorophenyl)-6-fluoro-3,4-dihydroisoquinoline-2(1H)-carboxamide] it is 44 nM.
With `CN1CCN(c2cc(-c3cc4c(cc3F)CCN(C(=O)NC3CCCCC3)C4)nc(N)n2)CC1` [Example 76, 7-[2-Amino-6-(4-methylpiperazin-1-yl)pyrimidin-4-yl]-N-cyclohexyl-6-fluoro-3,4-dihydroisoquinoline-2(1H)-carboxamide], the half-maximal inhibitory concentration (IC50) was 77 nM.
As to `Cc1cc2c(cc1-c1cc(N3CCN(C)CC3)nc(N)n1)CN(C(=O)Nc1ccc(Cl)cc1)CC2` [Example 77, 7-[2-Amino-6-(4-methylpiperazin-1-yl)pyrimidin-4-yl]-N-(4-chlorophenyl)-6-methyl-3,4-dihydroisoquinoline-2(1H)-carboxamide], the IC50 came out at 95 nM.
The figure for `Cc1cc2c(cc1-c1cc(N3CCN(C)CC3)nc(N)n1)CN(C(=O)NC1CCCCC1)CC2` [Example 78, 7-[2-Amino-6-(4-methylpiperazin-1-yl)pyrimidin-4-yl]-N-cyclohexyl-6-methyl-3,4-dihydroisoquinoline-2(1H)-carboxamide] is 250 nM; for `CN1CCN(c2cc(-c3ccc4c(c3)CN(C(=O)OC3CCOC3)CC4)nc(N)n2)CC1` (stereo not shown) [Example 79, Tetrahydrofuran-3-yl 7-[2-amino-6-(4-methylpiperazin-1-yl)pyrimidin-4-yl]-3,4-dihydroisoquinoline-2(1H)-carboxylate] it is 364 nM.
For `CN1CCN(c2cc(-c3ccc4c(c3)CN(C(=O)NCc3ccccc3)CC4)nc(N)n2)CC1` [Example 80, 7-[2-Amino-6-(4-methylpiperazin-1-yl)pyrimidin-4-yl]-N-benzyl-3,4-dihydroisoquinoline-2(1H)-carboxamide], the IC50 was 232 nM.
Take `CN1CCN(c2cc(-c3ccc4c(c3)CN(C(=O)N(C)C3CCCCC3)CC4)nc(N)n2)CC1` [Example 81, 7-[2-Amino-6-(4-methylpiperazin-1-yl)pyrimidin-4-yl]-N-cyclohexyl-N-methyl-3,4-dihydroisoquinoline-2(1H)-carboxamide]: the IC50 was determined as 163 nM.
For the compound `CN1CCN(c2cc(-c3ccc4c(c3)CN(C(=O)NC3CCc5ccccc53)CC4)nc(N)n2)CC1` (stereo not shown) [Example 82, 7-[2-Amino-6-(4-methylpiperazin-1-yl)pyrimidin-4-yl]-N-(2,3-dihydro-1H-inden-1-yl)-3,4-dihydroisoquinoline-2(1H)-carboxamide], the IC50 was determined as 67 nM.
Take `CN1CCN(c2cc(-c3ccc4c(c3)CN(C(=O)NC3CCCc5ccccc53)CC4)nc(N)n2)CC1` (stereo not shown) [Example 83, 7-[2-Amino-6-(4-methylpiperazin-1-yl)pyrimidin-4-yl]-N-(1,2,3,4-tetrahydronaphthalen-1-yl)-3,4-dihydroisoquinoline-2(1H)-carboxamide]: the IC50 was found to be 38 nM.
Turning to `CN1CCN(c2cc(-c3ccc4c(c3)CN(C(=O)N[C@@H]3CCOC3)CC4)nc(N)n2)CC1` [Example 84, 7-[2-Amino-6-(4-methylpiperazin-1-yl)pyrimidin-4-yl]-N-[(3R)-tetrahydrofuran-3-yl]-3,4-dihydroisoquinoline-2(1H)-carboxamide], the IC50 came to 744 nM.
Under `CN1CCN(c2cc(-c3ccc4c(c3)CN(C(=O)N[C@@H]3c5ccccc5C[C@@H]3O)CC4)nc(N)n2)CC1` [Example 87, 7-[2-Amino-6-(4-methylpiperazin-1-yl)pyrimidin-4-yl]-N-[(1R,2S)-2-hydroxy-2,3-dihydro-1H-inden-1-yl]-3,4-dihydroisoquinoline-2(1H)-carboxamide] stands 218 nM; under `CN1CCN(c2cc(-c3ccc4c(c3)CN(C(=O)Nc3nccs3)CC4)nc(N)n2)CC1` [Example 88, 7-[2-Amino-6-(4-methylpiperazin-1-yl)pyrimidin-4-yl]-N-1,3-thiazol-2-yl-3,4-dihydroisoquinoline-2(1H)-carboxamide], 135 nM.
